Results on eleven molecules are retold here after ChEMBL document CHEMBL1201862, “PubChem BioAssay data set” (2004).

Some test systems named below: ACHN; DU-145; TK-10; U-251; NCI-H226; K562; 786-0; HOP-62; CCRF-CEM; SF-539; SK-MEL-28; SK-OV-3; SW-620; COLO 205; IGROV-1; A549; SN12C; HL-60; SK-MEL-5; A498.
Common to all, as to assay: NCI tumour cell line growth inhibition, 48 h

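Protocol summary: plate cells (96-well), add compound at 5 concentrations, incubate 48 h, interpolate endpoints linearly. GI50 is the concentration that inhibits growth by half.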 The source made the active and inactive calls. Cut-off read from the data, not from the text of the source: active = GI50 up to about 1.1 µM and inactive = higher.

As to `C[C@@H]1S[C@H](c2c(F)cccc2Cl)n2c1nc1ccccc12`, the GI50 with ACHN was 27.9 µM (inactive); in the test on DU-145, 27.2 µM (inactive); with TK-10, 28.5 µM (inactive); in the test on U-251, 10.8 µM (inactive); in the test with NCI-H226, 19.9 µM (inactive); in the test with K562, 4.4 µM (inactive). Also, the GI50 was 14.8 µM (inactive) in the test on 786-0; 15.3 µM (inactive) in the test with HOP-62; 10.6 µM (inactive) with CCRF-CEM; 15 µM (inactive) in the test with SF-539; 13.7 µM (inactive) with SK-MEL-28; 28.4 µM (inactive) in the test on SK-OV-3. For the same molecule, the GI50 is 13.7 µM (inactive) in the test with SW-620; 11.2 µM (inactive) in the test with COLO 205; 17.2 µM (inactive) in the test with IGROV-1; 17.1 µM (inactive) in the test with A549; 15.6 µM (inactive) with SN12C.

Consider `O=C(/C=C1\N=C(c2ccccc2)N(c2ccc3c(c2)Sc2cc(N4C(=O)/C(=C/C(=O)/C=C/c5ccccc5)N=C4c4ccccc4)ccc2N3)C1=O)/C=C/c1ccccc1`, for which the GI50 in the test on ACHN was > 100 µM (inactive); with HL-60, 40.6 µM (inactive); with DU-145 it was > 100 µM (inactive); with TK-10 it was 45.1 µM (inactive); in the test on U-251, 24.2 µM (inactive); with K562, 30.8 µM (inactive). For the same molecule, the GI50 in the test with SK-MEL-5 was 18.7 µM (inactive); in the test on 786-0, 42.2 µM (inactive); in the test with HOP-62, 48.8 µM (inactive); in the test with CCRF-CEM, 24.4 µM (inactive); in the test with SK-MEL-28, 65.2 µM (inactive); in the test with SK-OV-3, 18.3 µM (inactive). Further, the GI50 in the test with SW-620 was 67.6 µM (inactive); in the test with COLO 205 it was > 100 µM (inactive); in the test on IGROV-1, 37.2 µM (inactive); in the test on A498 it was 27.9 µM (inactive); in the test with A549, > 100 µM (inactive); in the test with SN12C, 36.8 µM (inactive).

For the molecule `C[N+](C)(C)[BH-](Br)C(O)O` (stereo unspecified), the GI50 with ACHN, with HL-60, in the test with DU-145, in the test with TK-10, in the test on U-251 and in the test with K562 was > 100 µM (inactive) throughout. For the same molecule, the GI50 with SK-MEL-5, in the test on 786-0, in the test on HOP-62, with CCRF-CEM, with SF-539 and in the test on SK-MEL-28 was > 100 µM (inactive) in each case. Besides, the GI50 with SW-620, in the test on COLO 205, with IGROV-1, in the test with A498, with A549 and with SN12C was > 100 µM (inactive) in each case.

For `CCOC(=O)c1c(NC(=O)c2ccccc2)c(C#N)c2n1CCCCC2`, the GI50 in the test with ACHN, in the test with HL-60, with DU-145, in the test on TK-10, in the test with U-251 and in the test with NCI-H226 was > 100 µM (inactive) in each case. For the same molecule, the GI50 in the test with K562, in the test with SK-MEL-5, with 786-0, in the test on HOP-62, in the test on CCRF-CEM and in the test with SK-MEL-28 was > 100 µM (inactive) throughout. Also, the GI50 in the test with SK-OV-3, in the test on COLO 205, with IGROV-1, in the test on A549 and in the test with SN12C was > 100 µM (inactive) each time.

Regarding `CN1CCN(c2ccc3nc(C4=C(O)C(=O)c5c(nc(CO)n5C)C4=O)[nH]c3n2)CC1`, the GI50 in the test with ACHN was > 100 µM (inactive); with HL-60, > 100 µM (inactive); in the test with DU-145 it was > 100 µM (inactive); in the test on U-251, 76.2 µM (inactive); in the test on NCI-H226 it was > 100 µM (inactive); with K562, 59.8 µM (inactive). For the same molecule, the GI50 is > 100 µM (inactive) with 786-0; > 100 µM (inactive) in the test with HOP-62; > 100 µM (inactive) in the test with CCRF-CEM; 20.9 µM (inactive) with SF-539; > 100 µM (inactive) in the test on SK-MEL-28; > 100 µM (inactive) with SK-OV-3. Also, the GI50 with SW-620, with COLO 205, in the test with IGROV-1, in the test on A549 and in the test on SN12C was > 100 µM (inactive) in each case.

`COc1ccc(/C=C2\OC(=O)C(Cl)=C2c2ccc(OC)cc2)cc1`: the GI50 in the test with ACHN was > 100 µM (inactive); in the test with HL-60 it was > 100 µM (inactive); with DU-145, > 100 µM (inactive); with TK-10 it was 84.5 µM (inactive); with U-251, 89.3 µM (inactive); in the test with K562, > 100 µM (inactive). The GI50 with SK-MEL-5 was > 100 µM (inactive); with 786-0 it was 45.6 µM (inactive); with HOP-62 it was 28 µM (inactive); in the test on CCRF-CEM, > 100 µM (inactive); in the test on SF-539, > 100 µM (inactive); in the test on SK-MEL-28, > 100 µM (inactive). In addition, the GI50 with SK-OV-3, in the test with SW-620, with COLO 205, in the test on IGROV-1, in the test on A498 and in the test on A549 was > 100 µM (inactive) throughout. The GI50 in the test on SN12C is > 100 µM (inactive).

For the molecule `O=C1CCc2cc3c(cc21)C(C(=O)O)CC3` (stereo unspecified), the GI50 in the test with ACHN, in the test on HL-60, in the test with DU-145, in the test on TK-10, with U-251 and in the test on NCI-H226 was > 100 µM (inactive) in each case. Moreover, the GI50 in the test with K562, with SK-MEL-5, in the test on 786-0, with HOP-62, in the test on CCRF-CEM and in the test on SF-539 was > 100 µM (inactive) throughout. For the same molecule, the GI50 in the test with SK-MEL-28, in the test with SK-OV-3, with SW-620, in the test on COLO 205, in the test on IGROV-1 and with A549 was > 100 µM (inactive) throughout. For the same molecule, in the test with SN12C, the GI50 was > 100 µM (inactive).

Regarding `CC(=O)N(C)CCc1c[nH]c2ccccc12`, the GI50 in the test on ACHN, with HL-60, in the test on DU-145, with TK-10, in the test on U-251 and in the test on NCI-H226 was > 100 µM (inactive) each time. In addition, the GI50 in the test on K562, in the test with SK-MEL-5, with 786-0, in the test on HOP-62, in the test on CCRF-CEM and in the test on SF-539 was > 100 µM (inactive) each time. Also, the GI50 in the test on SK-MEL-28, in the test on SK-OV-3, in the test with SW-620, with COLO 205, with IGROV-1 and in the test with A549 was > 100 µM (inactive) in each case. The GI50 in the test with SN12C is > 100 µM (inactive).

With `[O-]c1c2cc(-[n+]3c(-c4ccccc4)cc(-c4ccccc4)cc3-c3ccccc3)cc1CO[C@@H](c1ccccc1)[C@H](c1ccccc1)OCc1cccc(n1)CO[C@@H](c1ccccc1)[C@H](c1ccccc1)OC2`, the GI50 was 0.304 µM (active) in the test with ACHN; 0.0215 µM (active) with HL-60; 0.326 µM (active) in the test on DU-145; 0.594 µM (active) with TK-10; 0.0285 µM (active) in the test on U-251; 0.0293 µM (active) in the test with K562. The GI50 in the test on SK-MEL-5 was 0.0424 µM (active); in the test on 786-0, 0.0764 µM (active); in the test on HOP-62 it was 0.169 µM (active); in the test on CCRF-CEM, 0.0314 µM (active); with SF-539, 0.371 µM (active); in the test on SK-MEL-28, 0.713 µM (active). The GI50 was 0.0775 µM (active) in the test on SK-OV-3; 0.0568 µM (active) in the test with SW-620; 0.0259 µM (active) with COLO 205; 0.0388 µM (active) in the test on IGROV-1; 0.867 µM (active) in the test with A498; 0.0536 µM (active) in the test on A549. Further, the GI50 in the test with SN12C is 0.0378 µM (active).

Consider `O=C(O)CNC(=O)CO/N=C1/C(=C2/C(=O)Nc3ccccc32)Nc2ccccc21`, for which the GI50 in the test with ACHN was > 100 µM (inactive); in the test with HL-60, 57.9 µM (inactive); with DU-145 it was > 100 µM (inactive); with TK-10, > 100 µM (inactive); in the test on U-251, > 100 µM (inactive); with NCI-H226, > 100 µM (inactive). For the same molecule, the GI50 is > 100 µM (inactive) with K562; 54.2 µM (inactive) in the test on SK-MEL-5; > 100 µM (inactive) in the test with 786-0; 27.4 µM (inactive) in the test on HOP-62; 42.8 µM (inactive) in the test with CCRF-CEM; > 100 µM (inactive) with SF-539. The GI50 was > 100 µM (inactive) in the test with SK-MEL-28; 20.9 µM (inactive) in the test with SK-OV-3; > 100 µM (inactive) with SW-620; 46.2 µM (inactive) in the test with COLO 205; 72.6 µM (inactive) in the test with IGROV-1; 86.5 µM (inactive) in the test on A549. Also, the GI50 in the test with SN12C is > 100 µM (inactive).

For the molecule `Nc1ncnc2c1nnn2C1C=C(CO)C(O)C1O` (stereo unspecified), the GI50 in the test on ACHN is > 53.5 µM (inactive); in the test on HL-60 it was 12.1 µM (inactive); in the test with TK-10 it was > 92.5 µM (inactive); in the test on U-251, > 100 µM (inactive); in the test with NCI-H226, > 100 µM (inactive); with K562, 40.8 µM (inactive). The GI50 with SK-MEL-5 was > 100 µM (inactive); in the test with 786-0 it was 53.2 µM (inactive); with HOP-62, > 92 µM (inactive); with CCRF-CEM, 50.7 µM (inactive); in the test with SF-539, > 85.3 µM (inactive); with SK-MEL-28, 65.3 µM (inactive). The GI50 with SK-OV-3 was > 100 µM (inactive); in the test with SW-620 it was 29.4 µM (inactive); in the test with COLO 205 it was > 36 µM (inactive); in the test on IGROV-1, > 100 µM (inactive); in the test on A498, > 100 µM (inactive); in the test on A549 it was 58.1 µM (inactive). The GI50 in the test on SN12C was 33 µM (inactive).
